Laboratory results reported in publication PMC7139824, “Molecular Mechanisms of PARP-1 Inhibitor 7-Methylguanine” (International Journal of Molecular Sciences, 2020).

How the values were obtained:
[1] = molecular target: T1, poly(ADP-ribose) polymerase 1 (PARP-1) (Homo sapiens, UniProt P09874); assay: real-time fluorescence anisotropy activity assay, purified PARP-1 with DNA duplex; competitive kinetics vs NAD+; type: biochemical
T1 construct: gene PARP1

[2] = molecular target: T1, poly(ADP-ribose) polymerase 1 (PARP-1); assay: fluorescence anisotropy kinetics, reaction rate vs NAD+ concentration ([…]); type: biochemical

T1 sequence (P09874 2-1014): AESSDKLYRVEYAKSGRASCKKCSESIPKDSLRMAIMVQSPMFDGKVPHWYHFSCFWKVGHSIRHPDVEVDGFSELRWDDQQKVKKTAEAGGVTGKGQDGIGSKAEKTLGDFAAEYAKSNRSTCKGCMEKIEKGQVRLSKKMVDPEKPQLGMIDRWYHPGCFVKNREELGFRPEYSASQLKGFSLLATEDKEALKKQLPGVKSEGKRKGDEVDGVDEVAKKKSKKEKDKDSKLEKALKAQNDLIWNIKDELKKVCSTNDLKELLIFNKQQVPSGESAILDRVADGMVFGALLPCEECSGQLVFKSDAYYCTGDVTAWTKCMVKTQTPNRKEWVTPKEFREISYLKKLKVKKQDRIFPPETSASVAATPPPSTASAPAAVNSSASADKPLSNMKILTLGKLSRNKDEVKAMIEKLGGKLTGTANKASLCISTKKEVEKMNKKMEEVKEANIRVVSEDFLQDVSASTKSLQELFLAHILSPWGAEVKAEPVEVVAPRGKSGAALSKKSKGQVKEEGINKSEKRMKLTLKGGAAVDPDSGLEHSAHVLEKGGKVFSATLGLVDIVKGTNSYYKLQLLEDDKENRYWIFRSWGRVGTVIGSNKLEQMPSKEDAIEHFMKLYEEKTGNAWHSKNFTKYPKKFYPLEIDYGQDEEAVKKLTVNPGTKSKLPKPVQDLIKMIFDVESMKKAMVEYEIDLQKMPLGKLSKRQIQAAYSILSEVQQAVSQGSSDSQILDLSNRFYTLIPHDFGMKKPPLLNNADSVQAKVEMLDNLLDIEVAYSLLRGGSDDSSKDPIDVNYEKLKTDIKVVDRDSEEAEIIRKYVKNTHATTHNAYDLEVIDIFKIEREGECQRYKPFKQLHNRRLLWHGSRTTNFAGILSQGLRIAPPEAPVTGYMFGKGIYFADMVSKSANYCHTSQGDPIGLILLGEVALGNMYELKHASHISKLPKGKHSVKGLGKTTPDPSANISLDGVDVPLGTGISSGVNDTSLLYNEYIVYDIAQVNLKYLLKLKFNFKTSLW

| SMILES | Ki [1] | fluorescence anisotropy kinetics, reaction rate vs NAD+ concentration (0-2500 μM) [2] |
| --- | --- | --- |
| Cn1cnc2nc(N)[nH]c(=O)c21 [7-MG, 7-methylguanine] | 61 ± 9 µM |  |
| NC(=O)c1ccc[n+]([C@@H]2O[C@H](COP(=O)([O-])OP(=O)(O)OC[C@H]3O[C@@H](n4cnc5c(N)ncnc54)[C@H](O)[C@@H]3O)[C@@H](O)[C@H]2O)c1 [NAD^+] |  | Dependence of the PARP-1-catalyzed reaction rate on the NAD^+ concentration at different concentrations of 7-MG |
